Like-named read-outs stand apart in the source and are kept apart here.
How the values were obtained:
[1] = tested on: parkinsonian motor effects; assay: Standardized motor disability scale for parkinsonian primates; type: in vivo, Rhesus monkeys (Macaca mulatta)
stability and balance = assay: Perch test; type: in vivo, Rhesus monkeys (Macaca mulatta); details: MP-10 0.21 or 0.67 mg/kg s.c.
psychotic symptoms = details: ref DeMartinis, 2012, cited from earlier work
[2] = tested on: blood-brain barrier efflux transporters; details: ref Verhoest et al, 2009; cited from earlier work
[3] = rat; ref Schmidt et al, 2008; cited from earlier work
[4] = Plasma levels of MP-10 after subcutaneous administration; details: rhesus monkey, sc
[5] = mouse; ref Verhoest et al, 2009; cited from earlier work
[6] = tested on: finger dexterity / fast hand movements; assay: Klüver Board test; type: in vivo, Rhesus monkeys (Macaca mulatta)
[7] = tested on: cortical-, extrapyramidal motor- and autonomic-mediated functions; assay: Drug Effects on Nervous System
PDE10A = assay: Estimated PDE10A target occupancy; type: in vivo, Rhesus monkeys (Macaca mulatta); details: calculated from Cp,u with IC50 1.0 nM
brain [18F] FDG uptake = assay: [18F] Fluorodeoxyglucose-PET imaging of brain; type: in vivo, Rhesus monkeys (Macaca mulatta)
D2 receptor = details: ref Olsen et al., 2008; cited from earlier work
[8] = MP-10 0.67 and 1.33 mg/kg s.c., p < 0.001
[9] = MP-10 doses up to 0.21 mg/kg s.c.
[10] = risperidone 0.032 and 0.1 mg/kg s.c.

In the case of `Cn1cc(-c2ccncc2)c(-c2ccc(OCc3ccc4ccccc4n3)cc2)n1` [MP-10, 2-[4-(1-methyl-4-pyridin-4-yl-1H-pyrazol-3-yl)-phenoxymethyl]-quinoline], the “global motor disability scores” value ([1]; MP-10 0.021, 0.067, or 0.21 mg/kg s.c., 3 hours after administration) is reported as “no effect”, the social interaction ([1]; MP-10 0.67 and 1.33 mg/kg s.c., similar at both doses, p < 0.001) is reported as “decrease in social interaction” and the “impairment in hand movements” value [1, 8] is reported as “mild and similar at both doses”. For the same compound, the “impairment in leg movements” value [1, 8] was “mild and similar at both doses”, the mobility score [1, 8] was “increased in a dose dependent fashion” and the posture score [1, 8] was “increased in a dose dependent fashion”. The “global motor disability scores” value ([1]; MP-10 0.67 and 1.33 mg/kg s.c., p < 0.001, 3 of the 4 monkeys) was “increase in global scores”, the Perch test performance (stability and balance) was “did not show any compromise” and the “Perch test scores before and 90 min after injection” value (stability and balance) was “zero”. The “primary endpoint: reduction in psychotic symptoms” value (psychotic symptoms; Phase 2A trial NCT01175135) was “did not meet the primary endpoint”, the “adverse effects in Phase 2A trial” value (psychotic symptoms) was “sedation and side effects consistent with target engagement” and the “substrate for blood-brain barrier efflux transporters” value [2] was “no evidence that it is a substrate”. For the same compound, the “brain-to-plasma ratio (total brain-to-total plasma concentrations)” value [3] was ~ 0.9, the Tmax [4] was 1 to 2 h and the “brain-to-plasma ratio (total brain-to-total plasma concentrations)” value [5] was ~ 0.9. The “Klüver board task performance” value ([6]; MP-10 0.67 and 1.33 mg/kg s.c.) was “failed to perform the task”, the “Klüver board index of success” value [6, 9] was “no effect” and the “Klüver board action time” value ([6]; MP-10 doses up to 0.21 mg/kg s.c., 90 min after injection) was “no effect”. For the same compound, the DENS attentiveness [7, 8] was “decreased attentiveness”, the DENS involuntary movements [7, 8] was “induced oral dyskinesias” and the DENS reactivity [7, 8] was “decreased attentiveness and reactivity”. For the same compound, the “total DENS scores” value [7, 8] was “significant effects”, the DENS involuntary movements [7, 9] was “no effect” and the DENS salivation ([7]; MP-10 s.c.) was “non-significant increases”. The “projected PDE10A target occupancy” value (PDE10A; 0.21 mg/kg s.c., 1 h) was 16 ± 1%, the “projected PDE10A target occupancy” value (PDE10A; 0.21 mg/kg s.c., 2 h) was 19 ± 3% and the “projected PDE10A target occupancy” value (PDE10A; 0.21 mg/kg s.c., 3 h) was 17 ± 1%. For the same compound, the “projected PDE10A target occupancy” value (PDE10A; 0.67 mg/kg s.c., 1 h) was 41 ± 5%, the “projected PDE10A target occupancy” value (PDE10A; 0.67 mg/kg s.c., 2 h) was 47 ± 2% and the “projected PDE10A target occupancy” value (PDE10A; 0.67 mg/kg s.c., 3 h) was 42 ± 3%. For the same compound, the “SUV of [18F] FDG in striatal regions (pooled) vs vehicle” value (brain [18F] FDG uptake; MP-10 0.211 or 1.33 mg/kg s.c., p < 0.01, n=4) was “statistically significant increases”, the “SUV of [18F] FDG in cortical regions (pooled) vs vehicle” value (brain [18F] FDG uptake; MP-10 0.211 or 1.33 mg/kg s.c., p < 0.02, n=4) was “statistically significant increases” and the “FDG SUV in other brain regions relative to control (vehicle)” value (brain [18F] FDG uptake; two doses of MP-10 (0.21, 1.33 mg/kg s.c.)) was “No significant differences”.
With `Cc1nc2n(c(=O)c1CCN1CCC(c3noc4cc(F)ccc34)CC1)CCCC2` [risperidone, reference compound] the “motor disability scores (motor behavior)” value ([1]; risperidone 0.01 mg/kg s.c., 3 hours after administration) was “no effect”, the “hand movement score, in comparison to MP-10” value [1, 10] was “greater, dose-dependent increases” and the “leg movement score, in comparison to MP-10” value [1, 10] was “greater, dose-dependent increases”. For the same compound, the “mobility score, in comparison to MP-10” value [1, 10] was “notably less effect”, the “posture score, in comparison to MP-10” value [1, 10] was “roughly comparable increases” and the motor disability scores ([1]; risperidone 0.032 and 0.1 mg/kg s.c., dose- and time-dependent, p < 0.001) was “significant increases”. The “Klüver board action time, baseline vs 90 min” value ([6]; risperidone 0.01 mg/kg s.c.) was “No significant differences”, the “Klüver board action time” value ([6]; risperidone 0.032 and 0.1 mg/kg s.c., at cut off) was 60 s and the “behaviors scored using the DENS scale” value ([7]; risperidone 0.01 mg/kg s.c.) was “minimal effects”. The DENS involuntary movements ([7]; risperidone 0.032 mg/kg s.c., all monkeys) was “significant involuntary movements”, the “intensity of involuntary movements” value ([7]; risperidone 0.1 mg/kg s.c. vs 0.032 mg/kg) was “further increased” and the “DENS attentiveness, compared with MP-10” value ([7]; risperidone s.c.) was “less impairment”. The “DENS reactivity, compared with MP-10” value ([7]; risperidone s.c.) was “less impairment” and the “D2 receptor TO at which antipsychotic efficacy is observed” value (D2 receptor) was over 55%.

From publication PMC3934827 (Neuropharmacology, 2014)
